Experimental data from ChEMBL document CHEMBL2021772, “Synthesis and antitumor-evaluation of 1,3,4-thiadiazole-containing benzisoselenazolone derivatives” (Bioorg Med Chem Lett, 2012).

What was measured:
[1] = Antiproliferative activity against human […] cells after 48 hrs by CCK-8 assay; type: functional, cell-based
MCF7 = test: Antiproliferative activity against human MCF7 cells after 48 hrs by CCK-8 assay; type: functional, cell-based; conditions: MCF7, 48 h
A549 = test: Antiproliferative activity against human A549 cells after 48 hrs by CCK-8 assay; type: functional, cell-based; conditions: A549, 48 h
[2] = Toxicity in rat; type: organism-based; conditions: in vivo

| SMILES | IC50 [1] [µM] | IC50 (MCF7) [µM] | IC50 (A549) [µM] | LD50 [2] [mg/kg] |
| --- | --- | --- | --- | --- |
| O=c1c2ccccc2[se]n1-c1nnc(-c2ccccc2)s1 | 20.5 | 4.02 | 2.48 |  |
| O=c1c2ccccc2[se]n1-c1nnc(-c2ccc(F)cc2)s1 | 42.9 | 61.5 | 21.1 |  |
| O=c1c2ccccc2[se]n1-c1nnc(-c2ccccc2Cl)s1 | 40.2 | 4.43 | 10.1 |  |
| O=c1c2ccccc2[se]n1-c1nnc(-c2ccc(Cl)cc2)s1 | 24.4 | 19.4 | 10.4 |  |
| O=c1c2ccccc2[se]n1-c1nnc(-c2ccccc2Br)s1 | 27.4 | 59.4 | 12.7 |  |
| O=c1c2ccccc2[se]n1-c1nnc(-c2ccc(Br)cc2)s1 | 68.2 | 43.3 | 39.1 |  |
| Cc1ccccc1-c1nnc(-n2[se]c3ccccc3c2=O)s1 | 19.4 | 36.8 | 18.6 |  |
| Cc1cccc(-c2nnc(-n3[se]c4ccccc4c3=O)s2)c1 | 17.8 | 19.9 | 14.8 |  |
| Cc1ccc(-c2nnc(-n3[se]c4ccccc4c3=O)s2)cc1 | 16.6 | 18.7 | 13.4 |  |
| COc1ccccc1-c1nnc(-n2[se]c3ccccc3c2=O)s1 | 14.3 | 3.92 | 3.12 |  |
| COc1ccc(-c2nnc(-n3[se]c4ccccc4c3=O)s2)cc1 | 16.4 | 10 | 5.93 |  |
| COc1cc(-c2nnc(-n3[se]c4ccccc4c3=O)s2)cc(OC)c1OC | 7.15 | 3.44 | 3.24 |  |
| O=c1c2ccccc2[se]n1-c1nnc(-c2ccccc2[N+](=O)[O-])s1 | 22.5 | 31.2 | 11.4 |  |
| O=c1c2ccccc2[se]n1-c1nnc(-c2cccc([N+](=O)[O-])c2)s1 | 27.3 | 29.2 | 16.1 |  |
| O=c1c2ccccc2[se]n1-c1nnc(-c2cc([N+](=O)[O-])cc([N+](=O)[O-])c2)s1 | 21.6 | 37.8 | 17.9 |  |
| O=c1c2ccccc2[se]n1-c1ccccc1 [EBSELEN] | 18.3 | 15 | 3.75 | 6180 |
